{"source": "patent US11779628B2", "about": "“Use of cell-permeable peptide inhibitors of the JNK signal transduction pathway for the treatment of various diseases” (Xigen Inflammation Ltd., priority 2014, dated 2023)", "key": {"[1]": {"test_system": "patients after ocular surgery", "test": "Clinical Phase II, post-surgery intraocular inflammation: safety", "details": "for AEs considered by the Investigator to be related to Dexamethasone / AEs considered by the Investigator to be related to XG-102: blinded assessment", "method": "The criteria for evaluation of safety were: • a. Visual acuity by ETDRS method • b. Slit Lamp examination findings • c. The results of the ophthalmic fundus examination • d. Intra Ocular Pressure (IOP) measurements • e. Vital signs (blood pressure (BP), pulse rate (PR) and rhythm) • f. The results of the hematology and chemistry laboratory tests • g. The occurrence of Adverse Events • h. Presence (or not) of XG-102 in plasma 1 hour after the administration of study treatment in a subset of patients (approximately 30).\nAn AE is therefore any unfavorable and unintended sign, symptom or disease temporally associated with the use of a medicinal product, whether or not considered related to the medicinal product.\nA Suspected Unexpected Serious Adverse Reaction (SUSAR) was defined as a suspected adverse reaction related to the treatment that is both unexpected (i.e. not consistent with the expected outcomes of the study treatment being administered) and serious.\nPatients were analyzed as treated, i.e. according to the treatment which they received. The safety set was the primary analysis set for the safety analysis.\nThe present study was a double-blind study. All patients who were randomized and for whom the sub-conjunctival injection was started are included in the safety analysis by dose group. […] If the study treatment eye drops were stopped prematurely (i.e. before day 21), the patients concerned continued follow-up until day 28, in accordance with the study protocol.\nInvestigators assessed (in a blinded manner) the relationship of each reported AE to any of the study treatments. An event was considered to be related to study treatment if the Investigator ticked either ‘possible’ or ‘probable’ as the reply to this question."}, "[2]": {"test_system": "Sprague-Dawley albino rats, light-induced photoreceptor cell death", "type": "in vivo", "details": "Day 23", "excerpt": "The aim of this study was to investigate the dose effect of XG-102 on light-induced photoreceptor cell death.\n50 male Rat (Sprague-Dawley (albinos rat); approximately 8 weeks; 200-250 g (on ordering)) have been used. Rats are most commonly used in this experimental model. Animals were examined before study, and particular attention was paid to the eyes. Animals were held in observation for 2 weeks following their arrival. Animals were observed daily for signs of illness. Only healthy animals with no ocular abnormalities were accepted for use in experiments. Animals were housed individually in standard cages (420×270×190 mm)^ii. All animals were housed under identical environmental conditions. The temperature was held at 22±2° C. and the relative humidity at 55±10%. Rooms were continuously ventilated (15 times per hour). A cycle of 12 hours light (200-300 lx) and 12 hours darkness was automatically controlled. These parameters were continuously controlled and recorded. Throughout the study, animals had free access to food and water. They were fed a standard dry pellet diet. Tap water was available ad libitum from plastic bottles.\nForty-eight (48) rats were randomly divided into six (6) groups of eight (8) animals each. Test item (XG-102: 30 mg/ml, 3 mg/ml, and 0.3 mg/ml) and vehicle (0.9% NaCl) were administered by intravitreal injection in right eyes the day before induction. The reference (Phenyl-N-test-Butylnitrone (PBN) (50 mg/kg)) and vehicle were intraperitoneally injected 30 min before induction then, 3 times during 12 hours of light exposition, then once after induction. Animals were placed in constant light (7000 lux) for 24 h. Electroretinograms (ERG) were recorded before light treatment and on days 9, 16 and 23 after induction. Eyes were then taken for histology and outer nuclear layer (ONL) thickness assessment. The table below summarizes the allocation of animals in treatment groups:\nFor the intravitreal injection animals were anesthetized by intramuscular injection of a mixture of xylazine/ketamine. Test item (5 μl) and vehicle (5 μl) were injected in the right eye. The injection was performed under an operating microscope in the supratemporal area at pars plana using a 33G-needle mounted on a 50 μl Hamilton. The filled syringe was mounted into the UltraMicroPump III to achieve accurate injection in microliter range. Reference and vehicle were injected intraperitoneally at a dose volume of 2.5 ml/kg using a 30G-needle mounted on a 1 ml-syringe.\nLight Exposure: The rats that had been dark-adapted overnight were exposed for 24 hours to a continuous white fluorescent light (7000 Ix) in clear plastic cages. Each cage contained one rat. After exposure, the rats returned to rearing cyclic light conditions.\nERG was recorded before induction and 7, 14 and 21 days after cessation of exposure (Days 9, 16 and 23) on right eyes of dark-adapted and anesthetized animals. The latency times (for a- and b-wave) and the a-wave and b-wave amplitudes were measured for each ERG; the latency times were expressed as millisecond and the a-wave and b-wave as a percentage of the baseline value obtained before light exposure. 15 min before measurement 10 μl Mydriaticum® (0.5% tropicamide) were instilled for pupillary dilatation.\nERG Parameters: • Color: white maximum. • Maximum intensity: 2.6 cd·s/m^2 (0 dB); Duration 0.24 ms; number of flash: 1. • Filter: 50 Hz. • Impedence Threshold: 90 kΩ.\nMeasurement of the ONL Thickness: After ERG testing, animal was euthanized by an overdose of pentobarbital and the right eyes were enucleated, fixed and embedded in paraffin. Sections (5 μm thick) were performed along the vertical meridian and stained with Trichrome-Masson. The vertical meridian included the optic nerve.\nGroup mean values and standard deviation were calculated. A statistical Mann and Whitney test was used to evaluate the differences between pair-wise groups. For comparison between time-point into each vehicle groups, a Friedman test was used. […]"}}, "note": "Read-outs that look alike come from different tables or passages of the source.", "data": [{"smiles": "CC(C)C[C@@H](NC(=O)[C@@H](Cc1ccccc1)NC(=O)[C@H]1CCCN1C(=O)[C@@H](CCC(N)=O)NC(=O)[C@H](NC(=O)[C@H]1CCCN1C(=O)[C@@H](CCCNC(=N)N)NC(=O)[C@@H](CO)NC(=O)[C@@H](CCC(N)=O)NC(=O)[C@H](N)CC(=O)O)C(C)C)C(=O)N[C@H](CC(N)=O)C(=O)N[C@H](CC(C)C)C(=O)N[C@@H](C(=O)N[C@@H](C(=O)N1CCC[C@@H]1C(=O)N[C@H](CCCNC(=N)N)C(=O)N[C@H](CCCCN)C(=O)N1CCC[C@@H]1C(=O)N[C@H](CCCNC(=N)N)C(=O)N1CCC[C@@H]1C(=O)N1CCC[C@@H]1C(=O)N[C@H](CCCNC(=N)N)C(=O)N[C@H](CCCNC(=N)N)C(=O)N[C@H](CCCNC(=N)N)C(=O)N[C@H](CCC(N)=O)C(=O)N[C@H](CCCNC(=N)N)C(=O)N[C@H](CCCNC(=N)N)C(=O)N[C@H](CCCCN)C(=O)N[C@H](CCCCN)C(=O)N[C@H](CCCNC(=N)N)C(=O)NCC(=O)O)[C@H](C)O)[C@H](C)O", "note": "[XG-102]", "values": [{"measurement": "AEs possibly or probably related to study treatment as assessed by the Investigator", "setting": "[1]; 90 μg XG-102 (N = 47)", "value": 18, "unit": "Total # events"}, {"measurement": "AEs considered by the Investigator to be related to Dexamethasone", "setting": "[1]; 90 μg XG-102 group", "value": "2 (2.6%) Total # events (%)"}, {"measurement": "AEs considered by the Investigator to be related to XG-102", "setting": "[1]; 90 μg XG-102 group", "value": "16 (20.5%) Total # events (%)"}, {"measurement": "AEs possibly or probably related to study treatment as assessed by the Investigator", "setting": "[1]; 900 μg XG-102 (N = 48)", "value": 13, "unit": "Total # events"}, {"measurement": "AEs considered by the Investigator to be related to Dexamethasone", "setting": "[1]; 900 μg XG-102 group", "value": "1 (1.5%) Total # events (%)"}, {"measurement": "AEs considered by the Investigator to be related to XG-102", "setting": "[1]; 900 μg XG-102 group", "value": "12 (17.4%) Total # events (%)"}, {"measurement": "AEs possibly or probably related to study medication", "setting": "[1]; XG-102 90 μg", "value": 18, "unit": "events"}, {"measurement": "Intraocular pressure increased, patients", "setting": "[1]; XG-102 90 μg", "value": 23, "unit": "%"}, {"measurement": "events in SOC EYE DISORDERS", "setting": "[1]; XG-102 90 μg", "value": 49, "unit": "events"}, {"measurement": "events resulting in premature withdrawal of study treatment eye drops", "setting": "[1]; XG-102 90 μg", "value": 11, "unit": "events"}, {"measurement": "patients with SAEs", "setting": "[1]; XG-102 90 μg", "value": 4, "unit": "patients"}, {"measurement": "patients with events in SOC EYE DISORDERS", "setting": "[1]; XG-102 90 μg", "value": "26 (55%)"}, {"measurement": "percentage of patients with an AE within 24 hours after administration", "setting": "[1]; XG-102 90 μg", "value": 34, "unit": "%"}, {"measurement": "total number of AEs reported", "setting": "[1]; XG-102 90 μg", "value": 78}, {"measurement": "Reported AEs by severity: Mild", "setting": "[1]; XG-102 90 μg dose group", "value": "55 (70.5%) number of events (% of reported events)"}, {"measurement": "Reported AEs by severity: Moderate", "setting": "[1]; XG-102 90 μg dose group", "value": "6 (7.7%) number of events (% of reported events)"}, {"measurement": "Reported AEs by severity: Severe", "setting": "[1]; XG-102 90 μg dose group", "value": "17 (21.7%) number of events (% of reported events)"}, {"measurement": "AEs possibly or probably related to study medication", "setting": "[1]; XG-102 900 μg", "value": 13, "unit": "events"}, {"measurement": "Intraocular pressure increased, patients", "setting": "[1]; XG-102 900 μg", "value": 10, "unit": "%"}, {"measurement": "events in SOC EYE DISORDERS", "setting": "[1]; XG-102 900 μg", "value": 43, "unit": "events"}, {"measurement": "events resulting in premature withdrawal of study treatment eye drops", "setting": "[1]; XG-102 900 μg", "value": 8, "unit": "events"}, {"measurement": "patients with SAEs", "setting": "[1]; XG-102 900 μg", "value": 3, "unit": "patients"}, {"measurement": "patients with events in SOC EYE DISORDERS", "setting": "[1]; XG-102 900 μg", "value": "24 (50%)"}, {"measurement": "percentage of patients with an AE within 24 hours after administration", "setting": "[1]; XG-102 900 μg", "value": 27, "unit": "%"}, {"measurement": "total number of AEs reported", "setting": "[1]; XG-102 900 μg", "value": 69}, {"measurement": "Reported AEs by severity: Mild", "setting": "[1]; XG-102 900 μg dose group", "value": "49 (71.0%) number of events (% of reported events)"}, {"measurement": "Reported AEs by severity: Moderate", "setting": "[1]; XG-102 900 μg dose group", "value": "12 (17.4%) number of events (% of reported events)"}, {"measurement": "Reported AEs by severity: Severe", "setting": "[1]; XG-102 900 μg dose group", "value": "8 (11.6%) number of events (% of reported events)"}, {"measurement": "Eye pain", "setting": "[1]; XG-102 900 μg vs dexamethasone (p=0.029)", "value": "Eye pain was more frequently reported for patients allocated to the XG-102 900 μg group"}, {"measurement": "protection of ONL thickness", "setting": "[2]; high dose XG-102", "value": "No protection was observed with high dose XG-102"}, {"measurement": "recovery of the a-wave (% of baseline)", "setting": "[2]; low dose 1.5 μg/eye", "value": 48.3, "unit": "%"}, {"measurement": "loss of the mean ONL thickness", "setting": "[2]; low dose XG-102", "value": 40, "unit": "%"}, {"measurement": "loss of the mean ONL thickness", "setting": "[2]; mid dose XG-102", "value": 40, "unit": "%"}]}]}
